Laboratory results as given in US7300933B2, “Diazabicyclic biaryl derivatives” (Neurosearch A/S, priority 2002, dated 2007).
Counter-ions that a name gives are not always drawn.

How the values were obtained:
serotonin transporter = target: T1, serotonin transporter (Rattus norvegicus, UniProt P31652); assay: In vitro inhibition of 3H-5-hydroxytryptamine uptake in cortical synaptosomes; format: biochemical; settings: 3H-5-HT 1 nM, 30 minutes at 37° C.
T1 construct: Cerebral cortices from male Wistar rats (150-200 g) are homogenized; from tissue; host or cells: rat cerebral cortex synaptosomes (P2 pellet)
T1 sequence (P31652 whole entry): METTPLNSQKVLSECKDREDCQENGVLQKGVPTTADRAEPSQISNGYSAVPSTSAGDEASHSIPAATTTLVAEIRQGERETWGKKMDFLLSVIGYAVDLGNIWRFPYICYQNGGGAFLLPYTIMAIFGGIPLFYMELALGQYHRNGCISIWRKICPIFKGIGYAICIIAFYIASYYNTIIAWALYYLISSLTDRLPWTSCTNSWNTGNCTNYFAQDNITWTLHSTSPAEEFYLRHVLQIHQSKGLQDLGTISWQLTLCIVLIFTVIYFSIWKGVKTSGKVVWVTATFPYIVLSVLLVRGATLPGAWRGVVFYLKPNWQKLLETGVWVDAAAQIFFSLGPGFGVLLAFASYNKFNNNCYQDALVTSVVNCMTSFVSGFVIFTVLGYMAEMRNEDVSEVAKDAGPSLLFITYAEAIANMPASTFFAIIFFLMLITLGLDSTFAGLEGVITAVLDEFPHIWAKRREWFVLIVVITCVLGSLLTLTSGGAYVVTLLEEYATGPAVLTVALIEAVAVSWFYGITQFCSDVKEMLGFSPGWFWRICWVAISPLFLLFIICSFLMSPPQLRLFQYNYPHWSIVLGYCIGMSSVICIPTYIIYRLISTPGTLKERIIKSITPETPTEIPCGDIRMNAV
Procedure: In vitro Inhibition of ^3H-5-Hydroxytryptamine Uptake in Cortical Synaptosomes
Serotonin transporters/uptake sites on nerve terminals presumably function to terminate neuronal signaling by removing serotonin from the synaptic cleft. The activity of the serotonin transporter integral protein can be measured in vitro by synaptosomal uptake of ^3H-5-hydroxytryptamine (5-HT, serotonin).
Preparations are performed at 0-4° C. Cerebral cortices from male Wistar rats (150-200 g) are homogenized for 5-10 seconds in 100 volumes of ice-cold 0.32 M sucrose containing 1 mM pargyline, using a motor driven teflon pestle in a glass homogenizing vessel. Monoamine oxidase activity is inhibited in the presence of pargyline.
The homogenate is subjected to centrifugation at 1000×g for 10 minutes. The resulting supernatant is then centrifuged at 27,000×g for 50 minutes and the supernatant is discarded. […]
Aliquots of 4.0 ml tissue suspension are added to 100 μl of test solution and 100 μl of ^3H-5-HT (1 nM, final concentration), mixed and incubated for 30 minutes at 37° C. Non-specific uptake is determined using Citalopram (1 μM, final concentration, available from Lundbeck, Denmark). […]
The amount of radioactivity on the filters is determined by conventional liquid scintillation counting. Specific uptake is calculated as the difference between total uptake and non-specific uptake. […]

[1] = target: T2, α7-subtype of nicotinic receptors (Rattus norvegicus, UniProt Q05941); assay: In vitro inhibition of 3H-α-bungarotoxine binding in rat brain; settings: rat cerebral cortex homogenate; 3H-α-bungarotoxine 2 nM; 2 hours at 37° C.
T2 construct: Cerebral cortices from male Wistar rats (150-250 g) are homogenised; from tissue; host or cells: rat cerebral cortex membrane homogenate
T2 sequence (Q05941 23-502): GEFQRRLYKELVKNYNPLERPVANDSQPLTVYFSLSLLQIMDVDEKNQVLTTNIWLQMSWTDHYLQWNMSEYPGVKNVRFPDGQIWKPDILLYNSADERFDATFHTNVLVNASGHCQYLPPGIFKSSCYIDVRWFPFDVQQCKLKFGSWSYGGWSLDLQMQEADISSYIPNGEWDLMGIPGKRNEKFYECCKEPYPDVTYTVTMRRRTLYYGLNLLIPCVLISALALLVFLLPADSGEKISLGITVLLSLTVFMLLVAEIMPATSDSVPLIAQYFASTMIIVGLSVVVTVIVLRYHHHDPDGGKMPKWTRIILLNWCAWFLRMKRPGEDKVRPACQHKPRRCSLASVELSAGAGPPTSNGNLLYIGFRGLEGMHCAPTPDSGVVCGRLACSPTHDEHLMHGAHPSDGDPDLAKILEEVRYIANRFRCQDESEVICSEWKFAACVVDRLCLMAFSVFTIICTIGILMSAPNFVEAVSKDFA

| Compound | IC50 (serotonin transporter) [nM] | IC50 [1] [nM] |
| --- | --- | --- |
| c1cc(-c2ccc(N3C[C@@H]4C[C@H]3CN4)nn2)cs1 [Compound 1A, 2-[6-(3-Thienyl)-3-pyridazinyl]-(1S,4S)-2,5-diazabicyclo-[2.2.1]-heptane fumaric acid salt] | 510 |  |
| CN1C[C@@H]2C[C@H]1CN2c1ccc(-c2ccsc2)nn1 [Compound 1B, 5-Methyl-2-[6-(3-thienyl)-3-pyridazinyl]-(1S,4S)-2,5-diazabicyclo-[2.2.1]-heptane] |  | 200 |
| c1cc(-c2cnc(N3C[C@@H]4C[C@H]3CN4)cn2)cs1 [Compound 1H, 2-[5-(3-Thienyl)-2-pyrazinyl]-(1S,4S)-2,5-diazabicyclo-[2.2.1]-heptane fumaric acid salt] | 21 | 260 |
